Entries after “also recorded” stand apart in the source; their conditions may differ.
Assays:
mBCO2 [1] = biological target: T1, mBCO2 (Mus musculus, UniProt Q99NF1); assay: Acyl-RAC assay of mBCO2 palmitoylation in HEK293F cells; type: cell-based; details: for mBCO2 palmitoylation (protein band in HAM-treated sample): HEK293F cells, 5 h
T1 construct: expressed in transfected cells; host or cells: HEK293F (Human 293F FreeStyle) cells
T1 sequence (Q99NF1 1-532): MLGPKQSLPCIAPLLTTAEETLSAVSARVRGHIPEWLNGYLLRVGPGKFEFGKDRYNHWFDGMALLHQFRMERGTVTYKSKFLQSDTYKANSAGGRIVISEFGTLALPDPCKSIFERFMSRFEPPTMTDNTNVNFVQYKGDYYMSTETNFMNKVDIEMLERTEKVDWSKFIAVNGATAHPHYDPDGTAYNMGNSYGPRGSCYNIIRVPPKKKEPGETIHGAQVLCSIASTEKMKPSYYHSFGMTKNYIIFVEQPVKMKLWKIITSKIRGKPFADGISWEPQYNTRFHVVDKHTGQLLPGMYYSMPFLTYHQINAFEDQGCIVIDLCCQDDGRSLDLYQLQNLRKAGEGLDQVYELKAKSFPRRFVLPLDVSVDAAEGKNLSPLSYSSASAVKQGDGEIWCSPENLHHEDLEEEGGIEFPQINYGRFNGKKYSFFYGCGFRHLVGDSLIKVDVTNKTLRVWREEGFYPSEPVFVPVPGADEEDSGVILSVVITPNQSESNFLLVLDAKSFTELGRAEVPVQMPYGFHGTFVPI
Method: previously published protocol. Briefly, a typical transfection experiment used 3×10^7 cells in 28 mL of FreeStyle medium mixed with 2 mL of OptiMem-I reduced serum medium containing 40 μL 293fectin transfection reagent (Invitrogen) and 20 μg of each expression plasmid under study. Cells were grown with shaking at 125 rpm on an orbital shaker platform in a 37° C. incubator with a humidified atmosphere of 8% CO2 for 48 h total. In total, 200 μl of vesicles with xanthophylls were added, incubating for 5 hr under standard growth conditions.
For cell lysis and the Acyl-RAC assay, the same protocol as previously described in detail, with slight modifications, was used. BCO2-overexpressing HEK293F cells were washed with 1X-PBS and resuspended in lysis buffer (50 mM HEPES (pH 7.4) containing 150 mM NaCl, 5 mM EDTA, 1% glycerol, and 1× complete protease inhibitor cocktail (Roche Diagnostics)). Resuspended cells were lysed using N2 cavitation followed by centrifugation at 900×g for 10 min at 4° C. to remove the cell debris and nuclei. The clarified supernatant was then subjected to centrifugation at 20,000×g for 30 min at 4° C. to obtain heavy membrane (mitochondrial) pellet and post-mitochondrial supernatant (light membrane and cytosol) fractions. Typically, a 1000 μg amount of resuspended heavy membrane pellet protein (resuspended in lysis buffer containing 0.1% Triton X-100) was used for palmitoylation detection assay. Briefly, free cysteine sulfhydryl (—SH) groups were blocked with 0.5% (v/v) S-methyl methanethiosulfonate (MMTS) containing blocking buffer for 15 min at 40 ° C. The blocked protein samples were then subjected to acetone protein precipitation. The protein pellet was then resuspended in 550 μl 100 mM HEPES containing 5 mM EDTA and 1% SDS (v/v). The samples were then divided into two 250 μl aliquots (containing 400 μg protein amount) and the remaining 50 μl was used as an input. The samples were treated with 250 mM hydroxylamine (NH2OH, HAM) or control (250 mM NaCl). To capture proteins with free —SH groups, each sample was mixed with 10 mg activated thiol-sepharose 4B beads (Sigma) and incubated for 2 h at room temperature with continuous end-over-end rotation. After incubation, the beads were washed, and bound proteins were eluted by boiling the beads with an aliquot of 50 μL elution sample buffer. The input and eluted fractions from “HAM” and “control” samples were separated by SDS-PAGE and analyzed by Western blotting.
(§1) It was previously established that mBCO2 in eukaryotic HEK293F cells is palmitoylated. […] Knowing that BCO2 cleaves xanthophylls, palmitoylation assays were ran to study the palmitoylation status of mBCO2 in the presence of xanthophylls. First, xanthophylls were attempted to be delivered with the detergent Tween 40 [50]. […] Therefore, a new method to deliver xanthophylls without detergents using unilamellar LUVs as described above was established. The content of xanthophylls in the HEK293F cells after 5 h of treatment was similar to a Tween 40 delivery system in ARPE-19 cells (1-2%) (FIG. 9A-9B). Subsequently, the acyl-RAC method was used as described previously. The membrane fraction of HEK293F cells expressing mBCO2 was subjected to treatment with hydroxylamine (+HAM) and an equal portion of the fraction was treated with 250 mM NaCl (−HAM) which served as control.

mBCO2 [2] = biological target: T1, mBCO2; assay: Immunocolocalization of mBCO2 in COS7 cells by confocal microscopy; type: cell-based; details: for percent of colocalization of mBCO2 with nuclear marker: 5 h, lutein 0.15 μM, violaxanthin 0.6 μM, compared with zeaxanthin 0.45 μM
Method: BCO2-overexpressing COS7 cells (1×10^6 cells/mL) seeded on poly L-lysine coated 18 mm coverslips were analyzed by immunofluorescence microscopy to determine the localization of BCO2 protein in different subcellular organelles as described previously. Briefly, COS7 cells were transfected with 20 μg of BCO2-Lumio V5 tag plasmid using Fugene® 6 transfection reagent (1:6 DNA: Fugene 6 ratio). After 43 h, BCO2-transfected cells were treated with substrate-encapsulated LUVs for 5 h. Fixed cells were immunostained with V5 monoclonal and polyclonal antibodies alone and together with primary antibodies specific for different subcellular organelles (ER (PDIA3), Golgi (MAN2A1), mitochondria (COX IV and HSP60), and peroxisomes (PMP70)), followed by Alexa fluorophore-conjugated secondary antibodies (Invitrogen). Cell nuclei were stained with DAPI (1 μg/μL solution; Sigma). Slides were then visualized with a Zeiss LSM 700 confocal microscope using a 40× oil immersion lens/1.4-NA and Zeiss ZEN software. Pearson's correlation coefficient values were determined for analysis of the co-localization of BCO2 protein and different organelles and represented as mean±standard deviation. For nuclear co-localization of BCO2 protein, the Pearson's correlation coefficient of BCO2 with DAPI-stained nuclei was measured using the results from three independent experiments: single labeling of BCO2 “alone”, double labeling of BCO2 with mitochondrial markers COX IV and HSP60. Results shown were typical of a minimum of three independent experiments with 5-10 fields of view containing on average 1-10 cells/field of view.
Next, BCO2 localization by immunofluorescence microscopy was examined using mBCO2 transfected COST cells with various organellar markers (for mitochondria, peroxisomes, endoplasmic reticulum (ER), and Golgi). It was confirmed that V5 tag antibodies recognize specifically mBCO2-V5 protein in transfected HEK293F cells (FIG. 12A-12F). For nuclear labeling, DAPI nuclear stain was used. […]

[3] = Spectroscopic (UV/Vis) determination of the concentration of xanthophylls in LUVs; type: physicochemical
Method: The concentrations of xanthophylls were measured using a 2 mm optical path quartz cell in an Agilent Cary 60 UV-Vis spectrophotometer. To measure the concentration of xanthophylls in LUVs, a 10 μL aliquot is mixed with 300 μL of DMF. Standards and samples were measured at least 3 times and the data were averaged.

HEK293F cells = assay: Tween 40 delivery: effect on HEK293F cells; type: cell-based, human; details: higher concentration of Tween 40 (0.1%)
From the text: as §1

mBCO2 [4] = biological target: T1, mBCO2; details: HEK293F cells, earlier work [34]; cited from earlier work
mBCO2 [5] = biological target: T1, mBCO2; details: earlier work [34]; cited from earlier work

Compound: CC1=C[C@H](O)CC(C)(C)[C@H]1/C=C/C(C)=C/C=C/C(C)=C/C=C/C=C(C)/C=C/C=C(C)/C=C/C1=C(C)C[C@@H](O)CC1(C)C [lutein]
- mBCO2 palmitoylation (protein band in HAM-treated sample) (mBCO2 [1]; 0.06 μM lutein in DMPC/DMPS): no protein band was detected in the HAM-treated sample; also recorded: residual mBCO2 palmitoylation is seen in some samples
- mBCO2 palmitoylation (protein band in HAM-treated sample) (mBCO2 [1]; 0.15 μM lutein in DMPC/DMPS): no protein band was detected in the HAM-treated sample
- percent of colocalization of mBCO2 with nuclear marker (mBCO2 [2]): higher
- percent colocalization of BCO2 in the nucleus (mBCO2 [2]; lower concentration of lutein (0.06 μM) versus 0.15 μM): decreased in a lutein concentration-dependent manner
- final concentration of xanthophyll in LUVs measured by UV/Vis ([3]; DMPC/DMPS LUVs): 0.0125 g/L

Compound: CC(/C=C/C=C(C)/C=C/[C@@]12O[C@]1(C)C[C@@H](O)CC2(C)C)=C\C=C\C=C(C)\C=C\C=C(C)\C=C\[C@@]12O[C@]1(C)C[C@@H](O)CC2(C)C [violaxanthin]
- mBCO2 palmitoylation (protein band in HAM-treated sample) (mBCO2 [1]; 0.6 μM, DMPC/DMPS-encapsulated): residual mBCO2 palmitoylation is seen in some samples
- percent of colocalization of mBCO2 with nuclear marker (mBCO2 [2]): higher
- final concentration of xanthophyll in LUVs measured by UV/Vis ([3]; DMPC/DMPS LUVs): 0.07 g/L

Compound: Tween 40 [reference compound]
- effect on mBCO2 membrane association in Acyl-RAC assay (mBCO2 [1]; lower concentration of Tween 40 (0.01%)): eluted mBCO2 from membranes during the Acyl-RAC assay even without hydroxylamine treatment
- effect on HEK293F cells (HEK293F cells): led to HEK293F cell apoptosis

Compound: CC1=C(/C=C/C(C)=C/C=C/C(C)=C/C=C/C=C(C)/C=C/C=C(C)/C=C/C2=C(C)CCCC2(C)C)C(C)(C)CCC1 [β-carotene]
- mBCO2 palmitoylation in presence of substrate (mBCO2 [4]): loses palmitoylation
- mBCO2 colocalization with the nuclear DAPI stain (mBCO2 [5]): mBCO2 colocalization with the nuclear DAPI stain was observed

Compound: CC1=C(/C=C/C(C)=C/C=C/C(C)=C/C=C/C=C(C)/C=C/C=C(C)/C=C/C2=C(C)C[C@@H](O)CC2(C)C)C(C)(C)C[C@H](O)C1 [zeaxanthin]
- mBCO2 palmitoylation (protein band in HAM-treated sample) (mBCO2 [1]; 0.45 μM, DPPC/DPPS-encapsulated): residual mBCO2 palmitoylation is seen in some samples
- final concentration of xanthophyll in LUVs measured by UV/Vis ([3]; DMPC/DMPS LUVs): 0.14 g/L
- final concentration of xanthophyll in LUVs measured by UV/Vis ([3]; DPPC/DPPS LUVs): 0.038 g/L
